Assay results as given in patent US9770423B2, “Modulation sAPP, sAAPα and BDNF levels in individuals diagnosed with FXS and ASD” (Indiana University Research and Technology Corp., priority 2012, dated 2017).
Several values for one entry are separate records, joined by “and”; a condition that tells them apart may be missing. Equal values may be shown once.

Experiments:
[1] = system: leptin, beta endorphin, cortisol; settings: humans with alcohol dependence; cited from earlier work
sAPPα = assay: plasma sAPPα by ELISA pre- and post-acamprosate; assay type: in vivo, human
Description: Test plasma samples are measured soon after collection. When necessary test samples of plasma were frozen but not subjected to repeated freeze/thaw cycles. The test samples were thawed just before use at a low temperature and mixed them completely. If necessary, the plasma samples can be diluted appropriately with the EIA buffer, and assay may be performed in duplicate measurements for the test samples and standards. Test samples in neutral pH range were used, and steps were taken to avoid the contamination with of organic solvents. Regarding the standard to quantify the sAPPα levels, a series of sAPPα standards in EIA buffer by serial dilutions, from 0.78 ng/mL to 50 ng/mL were prepared.
The ELISA plates were pre-coated with anti-human sAPPα(2B3) mouse IgG-monoclonal affinity purified (IBL). First, the wells for the reagent blank were determined, and 100 μL each of “EIA buffer” or 10 mM NaHCO3 (pH9.5) buffer was placed into each of the wells. Likewise, wells were assigned for test sample blanks, test samples and diluted standards. Next, 100 μL each of test sample blank, test sample and dilutions of standard was added to into the appropriate wells. The test sample included the plasma sample from each subject, which may vary from 5-25 μl, made up to 100 μL with the EIA buffer. The pre-coated plate was incubated overnight at 4° C. after covering it tightly with a plate lid. The plate was kept onto a rocker with gentle shaking Next day, each well of the pre-coated plate was vigorously washed with wash buffer containing 0.05% Tween 20 in phosphate buffer. This was done by filling each well with the wash buffer, leaving the pre-coated plate laid for 15-30 seconds and removing wash buffer completely from the plate by snapping. This procedure was repeated five times. After removing the remaining liquid from all wells completely by snapping the plate onto paper towel, 100 μL of labeled antibody solution was added into the wells of test samples, diluted standard and test sample blank. HRP-conjugated and labeled anti-Human APP (R101A4) mouse IgG from IBL was used. Each plate was incubated for 30 minutes at 4° C. after covering it with plate lid, and then washed the plate 5 times in the same manner as described before. To develop the color, 100 μL of the Chromogen (TMB solution) was added to into the wells, and the plate was incubated for 30 minutes at room temperature in the dark. When the liquid started turning blue (by addition of the Chromogen), 100 μL of the Stop solution (1N H2SO4) was added into the wells. The liquid was mixed by tapping the side of plate, and the liquid turned yellow by addition of the Stop solution. […] A plate reader was used and measurements were conducted measurement at 450 nm against a reagent blank. […]

sAPP = assay: plasma sAPP total by ELISA pre- and post-acamprosate; assay type: in vivo, human
From the text: For sAPP levels, the Test plasma samples should be measured soon after collection. […] Just before assay, we thawed the test samples at a low temperature and mixed them completely. The plasma samples should be diluted appropriately with the EIA buffer, if needed. Duplicate measurement of test samples and standard are recommended. We used test samples in neutral pH range, and avoided the contaminations of organic solvent that may affect the measurement. Regarding the standard to quantify levels of sAPP, we prepared a series of sAPP standards in EIA buffer by serial dilutions, from 0.39 ng/mL to 25 ng/mL.
The ELISA plate was pre-coated with anti-human APP (R12A1) mouse IgG (IBL). First, the wells for reagent blank was determined, and 100 μL each of “EIA buffer” or 10 mM NaHCO3 buffer was added into the wells. Likewise, wells were assigned for test sample blank, test sample and diluted standard. Then 100 μL each of test sample blank, test sample and dilutions of standard was added into the appropriate wells. The test sample included the plasma sample from each subject, which may vary from 5-25 μl, made up to 100 μL with the EIA buffer. Each pre-coated plates was incubated overnight at 4° C. after covering it tightly with a plate lid. The plate was kept onto a rocker with gentle shaking. The next day, each well of the pre-coated plate was vigorously washed with wash buffer containing 0.05% Tween20 in phosphate buffer. This was performed by filling each well with wash buffer, leaving the pre-coated plate laid for 15-30 seconds and removing wash buffer completely from the plate by snapping. This procedure was repeated five times. After removing the remaining liquid from all wells completely by snapping the plate onto paper towel, we added 100 μL of labeled antibody solution into the wells of test samples, diluted standard and test sample blank. HRP labeled anti-Human APP (R101A4) mouse IgG from IBL was used. The plate was incubated for 30 minutes at 4° C. after covering it with plate lid, and then washed the plate 5 times in the same manner as described before. To develop the color, 100 μL of the Chromogen (TMB solution) was adding into the wells, and the plate was incubated for 30 minutes at room temperature in the dark.
When the liquid started turning blue (by addition of the Chromogen), 100 μL of the Stop solution (1N H2SO4) was added into the wells. […] A plate reader was used and measurements were conducted at 450 nm against a reagent blank. […]
The first project enrolled 12 youth aged 5 to 17 years with fragile X syndrome and comorbid ASD in a 10-week open-label trial of acamprosate. […] Plasma sAPP total and sAPPα were determined in serum using the ELISA kit obtained from Immuno Biological Laboratories (IBL, Gumma, Japan). […]

[2] = individual patients 1-6, baseline to Week 12

**Q.** For `CC(=O)NCCCS(=O)(=O)O.[Ca]` [acamprosate, Calcium Acetylhomotaurine], which hormone levels [1] is on record?
**A.** Its hormone levels is “lowers levels of several hormones: leptin, beta endorphin, cortisol”.

**Q.** And the “fractional change in sAPPα-CP” value (sAPPα; [2])?
**A.** The value was −0.7108 and −0.3184 and 0 and −0.02825 and −0.5967 and −0.4596.

**Q.** And the “sAPPα-CP, Week 12” value (sAPPα; individual patients 1-6, titled as diagnosed with FXS, after treatment)?
**A.** The value was 2.486 ng/mL and 5.056 ng/mL and 2.764 ng/mL and 4.778 ng/mL and 7.417 ng/mL and 2.694 ng/mL.

**Q.** And the “mean sAPPα post-treatment” value (sAPPα; pooled 15 participants (9 FXS, 6 idiopathic ASD), pre-treatment 8.4±7.9 ng/mL, p=0.003)?
**A.** Its value is 5.5 ± 7.2 ng/mL.

**Q.** What about the “mean sAPPα levels at endpoint” value (sAPPα; six subjects of the 12-week trial, baseline 7.8 ng/mL, p=0.03) of the same compound?
**A.** The value was 4.2 ng/mL.

**Q.** And the “fractional change in sAPP (total)-CP” value (sAPP; [2])?
**A.** Its value is −0.8279 and −0.3066 and −0.0102 and −0.1029 and −0.437 and −0.544.

**Q.** And the “mean sAPP total post-treatment” value (sAPP; pooled 15 participants (9 FXS, 6 idiopathic ASD), pre-treatment 32.6±38.3 ng/mL, p=0.01)?
**A.** The value was 21.4 ± 32.3 ng/mL.

**Q.** And the “levels of both sAPP total and sAPPα, direction of change per sample” value (sAPP; pooled 15 subjects)?
**A.** The value was “reduced with treatment in every sample tested except in one subject with idiopathic ASD where sAPPα was unchanged”.

**Q.** What about the “mean sAPP total levels at endpoint” value (sAPP; six subjects of the 12-week trial, baseline 34.7 ng/mL, p=0.02) of the same compound?
**A.** The value was 19.3 ng/mL.
